According to patent publication US11007169B2, “Cis-gnetin H and trans-gnetin H as therapeutic agents” (MIDDLE TENNESSEE STATE UNIVERSITY, priority 2014, dated 2021):

What was measured:
[1] = test system: BT20 cells (human breast carcinoma); test: Inhibition of cell proliferation, AlamarBlue fluorescent assay, BT20; assay type: cell-based; details: for inhibition at 10 µM: BT-20, 10 uM, 48-hours treatment; for IC50: BT-20, 48 hours, AlamarBlue, cancer cell line
Procedure: (§1) The cancer cell lines used in this study included human lung carcinoma (A549), human breast carcinoma (BT20 and MCF-7) and human osteosarcoma (U2OS), with the normal cell lines human peripheral lung epithelial cells (HPL1A) and human mammary epithelial cells (HMEC) serving as controls. A549, BT20, MCF-7, U2OS and HMEC cells were purchased from American Type Culture Collection (ATCC, USA), and HPL1A cells were obtained from Nagoya University, Japan. A549 and BT20 were grown in RPMI-1640 (Sigma), MCF-7 was grown in Dulbecco's Modified Eagle Medium (DMEM) (Sigma) supplemented with 0.01 mg/ml human recombinant insulin (Sigma), U2OS and HMEC were grown in McCoy's 5A (ATCC), and HPL1A was grown in DMEM/F-12K (Sigma). The mediums were supplemented with 10% Fetal Bovine Serum (FBS) (Gibco), 1% penicillin and streptomycin and incubated in a humidified atmosphere with 5% CO2 at 37° C.
(§2) The proliferation inhibition potential of cis- and trans-gnetin H was determined by a fluorescence dye staining method. Cells were seeded in a 96-well tissue culture-treated plate (BD Falcon) at a density of 4000 cells/well, and treated with cis- or trans-gnetin H for 48 hours. AlamarBlue dye (Invitrogen) was used to assess the viability of cells according to the manufacturer's instructions; the fluorescent intensity was read on a SpectraMax M2e microplate reader (Molecular Devices Inc.).
For the determination of IC50 values, cells were treated with a serial dilution (320 μM, 100 μM, 32 μM, 10 μM, 3.2 μM, and 0.32 μM) of cis- or trans-gnetin H for 48 hours. Cell viability was determined with AlamarBlue dye (Invitrogen) and the IC50 values were calculated using non-linear regression analysis.

[2] = Conversion testing under 12-watt fluorescent lamp, HPLC; assay type: physicochemical; details: 6-hour treatment; for concentration of the compound after illumination: HPLC
Procedure: For stability testing, cis- and trans-gnetin H were dissolved with methanol to a concentration of 1 mg/ml. The stock solutions were sealed in a glass bottle and kept in the dark at room temperature for 6 months and then the purity of the two compounds was tested using the HPLC method previously described (He et al., J. Liq. Chromatog. Rel. Technol. 2013; 36:1708-1724). For conversion testing, cis- and trans-gnetin H were individually illuminated with a 12-watt fluorescent lamp for 2, 4 and 6 hours, and the compounds were identified using HPLC.

[3] = test system: A549 lung cancer xenografts; test: Xenograft studies, A549 lung tumors in nude mice; assay type: in vivo; details: 2.4 mg/kg
Procedure: 14 male nude mice (6 weeks old) were injected subcutaneously on both flanks with 2×10^6 A549 cells. […] Tumor sizes were measured 3 times per week, and volumes were calculated using the formula [length (mm)]×[width (mm)]^2/2 (Warburton et al., Clin. Cancer Res. 2004; 10(7): 2512-2524).

[4] = test system: PMA-differentiated THP-1 macrophages; test: Cell viability Alamar Blue assay, PMA-differentiated THP-1; assay type: cell-based, human; details: for viability of PMA-differentiated THP-1 cells: 3, 6, 13, 25, 50, 100 μM, 24 h treatment
Procedure: (§3) THP-1 cells were maintained in RPMI 1640 medium supplemented with 10% complement-inactivated FBS and 1% penicillin/streptomycin (complete culture medium) at 37° C. with 5% CO2 supplemented. Cell concentrations were adjusted to desired concentrations for each experiment by centrifugation at 500×g for 5 min and resuspended in complete culture medium with 100 nM of PMA. Cell concentration was adjusted to 5×10^5 cells/ml for all assays and 2.5×10^5 cells/ml were used for NF-κB nuclear translocation assay. Cells were seeded onto 96-, 24-, or 12-well plates and incubated for 48 to 72 h to allow for differentiation. Cells were washed with serum-free RPMI 1640 medium before each experiment to remove the undifferentiated cells.
Differentiated THP-1 cells were treated with various concentrations of cis- and trans-gnetin H and 1 μM of dexamethasone for 24 h. Following treatment, the cell supernatants were replaced with culture medium containing 1× Alamar Blue reagent and incubated for an additional 20-24 h. Cell viability was assessed by measuring Relative Fluorescent Units (RFU) on the SpectraMax M2e microplate reader (Molecular Devices Inc., Sunnyvale, Calif., USA) at Ex 560 nm and Em 590 nm. The results were expressed as a percentage, relative to untreated control cells (FIG. 9). Untreated and LPS-treated cells were tested for the effect of DMSO as vehicle control.
(§4) Differentiated THP-1 cells were pretreated with various concentrations of cis-gnetin H, trans-gnetin H, or 1 μM of dexamethasone for 1 h and stimulated with 20 ng/ml of LPS for 4 h. Dexamethasone is a synthetic glucocorticoid that suppresses cytokine response and was used as a positive control (Abraham et al., 2006, J. Exp. Med., 203:1883-9; Steer et al., J. Biol. Chem., 2000, 275(24):18432-40). Supernatants were collected for human cytokine ELISAs and the manufacturer's protocol was followed to assess the cytokine response. Cells remaining after the supernatant collection were tested for relative viability by Alamar Blue cytotoxicity assay as described earlier.

[5] = test system: TNF-α in LPS-stimulated THP-1 cells; test: Cytokine response by ELISA, TNF-α; assay type: cell-based, human; details: for IC50: Homo sapiens, THP-1, pretreated 1 h, LPS 4 h, ELISA; for inhibition of TNF-α: cis 12.5-50 μM, trans 8-30 μM, 20 ng/ml LPS, p<0.05
Procedure: as §3, §4

[6] = test system: IL-1β in LPS-stimulated THP-1 cells; test: Cytokine response by ELISA, IL-1β; assay type: cell-based, human; details: cis 12.5-50 μM, trans 8-30 μM, 20 ng/ml LPS, p<0.05
Procedure: as §3, §4

[7] = test system: IL-8 in LPS-stimulated THP-1 cells; test: Cytokine response by ELISA, IL-8; assay type: cell-based, human; details: cis 12.5-50 μM, trans 8-30 μM, 20 ng/ml LPS, p<0.05
Procedure: as §3, §4

[8] = test system: malignant cells (A549, BT20, MCF-7, U2OS); test: IC50 determination, panel of malignant cell lines; assay type: cell-based, human
Procedure: as §1
as §2, with “Inc.). […]” for “Inc.).”

[9] = test system: HL-60 (human leukemia) cells; details: Kang et al. 2003, cited from earlier work
[10] = test system: L1210 (mouse leukemia) cells; details: Ha et al. 2009; cited from earlier work

Row | IC50 [1] [µM] | concentration of the compound after illumination [2] [%] | IC50 [5] [µM] | IC50 ([8]; Homo sapiens, 48 h, bone, breast and lung cancer cell lines, 48 hours, read-out: IC50 values in malignant cells (range over cell lines)) [µM] | portion converted to its cis-isomer [2] | SMILES | inhibition at 10 µM [1] [%] | less increase in size of large tumors compared to the untreated control ([3]; large tumors) [%] | food intake or body weight of treated animals ([3]; nude mice) | less increase in size of small tumors compared to the untreated control ([3]; small tumors) [%] | viability of PMA-differentiated THP-1 cells [4] | cell viability with LPS ([4]; pretreatment 12.5, 25, 50 μM and LPS) | inhibition of TNF-α [5] | inhibition of IL-1β [6] | inhibition of IL-8 [7] | more antiproliferation activity than previously reported ([8]; A549, BT20, MCF-7 and U2OS versus literature) | cell viability with LPS relative to untreated control ([4]; pretreated at 50 μM and LPS) | increase of the sub-G1 population ([9]; HL-60 cells, 25 μM) [%] | IC50 ([9]; read-out: IC50, viability of HL-60 cells) [µM] | IC50 [10] [µM]
1 | 2.15 | 88.9 | 19 | – | – | Oc1ccc(/C=C\c2c3c(cc4c2[C@H](c2cc(O)cc(O)c2)[C@@H](c2ccc(O)cc2)O4)O[C@H](c2ccc(O)cc2)[C@H]3c2cc(O)cc(O)c2)cc1 [cis-gnetin H] | ~99 | 68 | no apparent alteration on food intake or body weight | 39 | Neither cis- nor trans-gnetin H affected the viability of the cells | no effect on cell viability | significant inhibition | significant inhibition | significant inhibition | – | – | – | – | –
2 | 1.35 | 6.2 | 6 | 1.35 to 10 | about 86% | Oc1ccc(/C=C/c2c3c(cc4c2[C@H](c2cc(O)cc(O)c2)[C@@H](c2ccc(O)cc2)O4)O[C@H](c2ccc(O)cc2)[C@H]3c2cc(O)cc(O)c2)cc1 [trans-gnetin H] | ~99 | – | – | – | Neither cis- nor trans-gnetin H affected the viability of the cells | – | significant inhibition | significant inhibition | significant inhibition | 2-9 fold | decreased viability | 11 | 25 | 40.1
